Measured values from PubChem BioAssay AID330 (DTP/NCI, 2004).
Where “and” joins values, the source holds several entries; their conditions need not be identical. Equal values may be shown once. Toxic doses and inconclusive results are not listed. The calls were made as follows: active = survival T/C of 150% or more; inactive = T/C below 125% in these data.

Test system: P388 leukemia ip, CD2F1 mice, survival T/C
Experiment: NCI In Vivo Anticancer Drug Screen. Data for tumor model P388 Leukemia (intraperitoneal) in CD2F1 (CDF1) mice
Conditions: endpoint: median survival time, higher = longer survival
Method in brief: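 Mice carrying the transplanted tumor received test compound or vehicle. Survival was recorded in each group, and the value is the treated-group measurement divided by that of the vehicle-treated control group.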

[1] = dose: 60.0 mg/kg/injection, schedule: Q01DX005 (ip), vehicle: saline with Tween-80
[2] = dose: 120.0 mg/kg/injection, schedule: Q01DX005 (ip), vehicle: saline with Tween-80
[3] = dose: 240.0 mg/kg/injection, schedule: Q01DX005 (ip), vehicle: saline with Tween-80
[4] = dose: 50.0 mg/kg/injection, schedule: Q01DX009 (ip), vehicle: saline
[5] = dose: 100.0 mg/kg/injection, schedule: Q01DX009 (ip), vehicle: saline
[6] = dose: 200.0 mg/kg/injection, schedule: Q01DX009 (ip), vehicle: saline

Measured: T/C

Nc1ccccc1C(=O)On1nnc2ccccc2c1=O
inactive: dose: 100.0 mg/kg/injection, schedule: Q01DX001 (ip), vehicle: Klucel (hydroxypropylcellulose) (HPC) 103 % of control | dose: 200.0 mg/kg/injection, schedule: Q01DX001 (ip), vehicle: Klucel (hydroxypropylcellulose) (HPC) 103 % of control | dose: 400.0 mg/kg/injection, schedule: Q01DX001 (ip), vehicle: Klucel (hydroxypropylcellulose) (HPC) 100 % of control

CCCCCC(Nc1nncs1)Nc1nncs1
inactive: [1] 94 % of control | [2] 96 % of control | [3] 105 % of control

COC(=O)c1cc(=O)nc(NNC(C)=O)s1
inactive: dose: 50.0 mg/kg/injection, schedule: Q01DX005 (ip), vehicle: Klucel (hydroxypropylcellulose) (HPC) 103 % of control | dose: 100.0 mg/kg/injection, schedule: Q01DX005 (ip), vehicle: Klucel (hydroxypropylcellulose) (HPC) 96 % of control | dose: 200.0 mg/kg/injection, schedule: Q01DX005 (ip), vehicle: Klucel (hydroxypropylcellulose) (HPC) 106 % of control

CCC[CH2][Sn]([CH3])([CH3])[CH2]CCN(C)C
inactive: [4] 98 % of control | [5] 98 % of control | [6] 88 % of control

C=CCC1(C)C=C(C)C(=O)C(C)=C1
inactive: [1] 105 % of control | [2] 102 % of control | [3] 104 % of control

CCCCCC(=O)C(=O)c1ccc(O)cc1O
inactive: dose: 50.0 mg/kg/injection, schedule: Q01DX009 (ip), vehicle: Klucel (hydroxypropylcellulose) (HPC) 89 % of control | dose: 100.0 mg/kg/injection, schedule: Q01DX009 (ip), vehicle: Klucel (hydroxypropylcellulose) (HPC) 109 % of control | dose: 200.0 mg/kg/injection, schedule: Q01DX009 (ip), vehicle: Klucel (hydroxypropylcellulose) (HPC) 100 % of control

[O]=[Ge]([c]1ccccc1)[c]1ccccc1
inactive: [4] 95 % of control | [5] 96 % of control | [6] 92 % of control

OCC1OC(n2c(Cl)nc3ccccc32)C(O)C1O (stereo not given)
inactive: dose: 60.0 mg/kg/injection, schedule: Q01DX005 (ip), vehicle: saline 100 % of control | dose: 120.0 mg/kg/injection, schedule: Q01DX005 (ip), vehicle: saline 103 % of control | dose: 240.0 mg/kg/injection, schedule: Q01DX005 (ip), vehicle: saline 98 % of control

O=C1C2C3C=CC(O3)C2C(=O)N1O (stereo not given)
inactive: dose: 3.13 mg/kg/injection, schedule: Q01DX009 (ip), vehicle: water 102 % of control | dose: 6.25 mg/kg/injection, schedule: Q01DX009 (ip), vehicle: water 112 % of control | dose: 12.5 mg/kg/injection, schedule: Q01DX009 (ip), vehicle: water 121 % of control | dose: 25.0 mg/kg/injection, schedule: Q01DX009 (ip), vehicle: water 118 % of control | dose: 50.0 mg/kg/injection, schedule: Q01DX009 (ip), vehicle: water 105 % of control

COc1ccc2c(c1)nnn2C(=O)/C=C/c1ccccc1
inactive: dose: 12.5 mg/kg/injection, schedule: Q01DX009 (ip), vehicle: saline with Tween-80 94 % of control | dose: 25.0 mg/kg/injection, schedule: Q01DX009 (ip), vehicle: saline with Tween-80 107 % of control | dose: 50.0 mg/kg/injection, schedule: Q01DX009 (ip), vehicle: saline with Tween-80 101 % of control and 104 % of control

Cc1cc(C)n(-c2ccccc2-[n+]2noc([O-])c2C)n1
inactive: dose: 50.0 mg/kg/injection, schedule: Q01DX005 (ip), vehicle: saline with Tween-80 97 % of control | dose: 100.0 mg/kg/injection, schedule: Q01DX005 (ip), vehicle: saline with Tween-80 95 % of control | dose: 200.0 mg/kg/injection, schedule: Q01DX005 (ip), vehicle: saline with Tween-80 95 % of control

CCCCCCCCCCCCSC1=CC(=O)C(OC)=C(OC)C1=O
inactive: dose: 0.78 mg/kg/injection, schedule: Q01DX009 (ip), vehicle: other 101 % of control | dose: 1.56 mg/kg/injection, schedule: Q01DX009 (ip), vehicle: other 108 % of control | dose: 3.13 mg/kg/injection, schedule: Q01DX009 (ip), vehicle: other 102 % of control | dose: 6.25 mg/kg/injection, schedule: Q01DX009 (ip), vehicle: other 108 % of control | dose: 6.25 mg/kg/injection, schedule: Q01DX030 (ip), vehicle: saline with Tween-80 101 % of control | dose: 10.0 mg/kg/injection, schedule: Q01DX030 (ip), vehicle: saline with Tween-80 108 % of control | dose: 12.5 mg/kg/injection, schedule: Q01DX009 (ip), vehicle: other 110 % of control | dose: 12.5 mg/kg/injection, schedule: Q01DX030 (ip), vehicle: saline with Tween-80 104 % of control and 108 % of control and 121 % of control | dose: 25.0 mg/kg/injection, schedule: Q01DX009 (ip), vehicle: other 118 % of control | dose: 25.0 mg/kg/injection, schedule: Q01DX030 (ip), vehicle: saline with Tween-80 105 % of control
